Experimental data taken from ChEMBL document CHEMBL1149829, “Terpenoids Produced by Actinomycetes: Napyradiomycins from Streptomyces antimycoticus NT17” (2008).
≈ marks a conversion by molar mass, not a printed value.

How the values were obtained:
Assay type in all cases: functional
Bacillus subtilis = test: Antibacterial activity against Bacillus subtilis ATCC 6633 in Mueller Hinton agar medium
Staphylococcus aureus = test: Antibacterial activity against Staphylococcus aureus 209P JC1 in Mueller Hinton agar medium
Enterococcus faecium = test: Antibacterial activity against Enterococcus faecium ATCC 19434 in Mueller Hinton agar medium
Enterococcus faecalis = test: Antibacterial activity against Enterococcus faecalis ATCC 19433 in Mueller Hinton agar medium
Streptococcus pyogenes = test: Antibacterial activity against Streptococcus pyogenes ATCC 12344 in Mueller Hinton agar medium

MIC (Bacillus subtilis) | MIC (Staphylococcus aureus) | MIC (Enterococcus faecium) | MIC (Enterococcus faecalis) | MIC (Streptococcus pyogenes) | SMILES
1 µM (≈ 0.507 µg/mL) | 2 µM (≈ 1.01 µg/mL) | 15.8 µM (≈ 8.02 µg/mL) | 31.6 µM (≈ 16 µg/mL) | 7.8 µM (≈ 3.96 µg/mL) | CC(C)=CCC/C(C)=C/C[C@@]12OC(C)(C)[C@H](Cl)C[C@]1(Cl)C(=O)C1=C(C2=O)C(=[N+]=[N-])C(=O)C=C1O
3.7 µM (≈ 2 µg/mL) | 3.7 µM (≈ 2 µg/mL) | 14.8 µM (≈ 8.02 µg/mL) | 14.8 µM (≈ 8.02 µg/mL) |  | C=C1CC[C@H](Cl)C(C)(C)[C@@H]1C[C@@]12OC(C)(C)[C@H](Cl)C[C@]1(Cl)C(=O)C1=C(C2=O)C(=[N+]=[N-])C(=O)C=C1O
